Experimental data published in patent publication US20260224714A1, “CYCLING LYSOSOMAL TARGETING ANTIBODY CONJUGATES” (Lycia Therapeutics, Inc., priority 2023, published 2026).

Legend:
Format in all cases: cell-based
recombinant IgE = experiment: Degradation of super-stoichiometric levels of target in HepG2 cells (Example 13, Table 31); conditions: 1 nM conjugate and 25 nM IgE for three days, (A-B)/C IgE depleted relative to conjugate, average of two replicate wells
Protocol: (§1) The following experiments were performed with HepG2 hepatocellular carcinoma cells, grown in Eagle's Minimal Essential Media (EMEM) supplemented with 10% FBS and penicillin/streptomycin.
For evaluation of compounds in a high throughput format, 25,000 HepG2 cells were plated in a 96-well plate. The following day, 50 ul of 1 nM conjugate and 25 nM recombinant IgE in EMEM were added to the cells. 50 ul of the initial stock of conjugate:IgE was saved to quantify for an initial time point. Three days later, the media was collected from cells, and both initial and 72 hour time points were quantified for IgE concentration using the MSD assay.
HepG2 cells were incubated in media containing 1 nM conjugate and 25 nM IgE for three days. Concentrations of IgE at beginning and end of experiment were quantified by ELISA-based assay. Molar equivalents of IgE depleted relative to conjugate added are shown, calculated as (A-B)/C, where A is the initial concentration of IgE, B is the concentration of IgE at day three, and C is the concentration of conjugate. Reported values are the average of the values of two replicate wells.

human IgE = experiment: Degradation of initial and subsequent dose of target in HepG2 cells (Example 12, Table 30); conditions: normalized to unconjugated; for Normalized Fluorescence Post Wash Median Green: after wash, probe-conjugated IgE added for 4 hours, subsequent dose of target; for Normalized Fluorescence Precomplex Median Deep Red: precomplexed equimolar conjugate:IgE (cathepsin-cleavable quenched fluorescent probe) added for 2 hours, initial dose of target
Protocol: as §1
HepG2 cells (25,000) were plated in 96-well plates 48 hours before performing the experiment. On the day of the experiment, indicated conjugate was diluted in fresh EMEM as a 2× stock, and mixed with an equimolar stock of human IgE (Enzo Life Sciences, BPD-DIA-HE 1) conjugated to a cathepsin-cleavable quenched fluorescent probe. The precomplexed conjugate:IgE mixture was incubated at 37 degrees Celsius for 30 minutes. Media from HepG2 was removed, and conjugate:IgE mixture in EMEM was added to cells for 2 hours. Cells were then placed on ice to prevent trafficking/recycling during wash steps, and washed once with DPBS, once with sodium acetate buffer (20 mM, 150 mM NaCl, pH 5.2), once with Earle's Balanced Salt Solution (EBSS) adjusted to pH 2.5, and once again with DPBS, to remove conjugate from media and cell surface. Afterwards, 100 ul of prewarmed (to 37 degrees Celsius) EMEM with cathepsin-cleavable quenched fluorescent probe-conjugated IgE was added to cells for 4 hours before washing with DPBS and detaching with 0.25% Trypsin/EDTA. Cells were pelleted in 96-well conical bottom plates, washed once with FACS Buffer with BSA (Rockland Immunochemicals), resuspended FACS Buffer with BSA and median 488 and 647 intensity was analyzed by flow cytometry. Delivery of labelled IgE to the lysosome and subsequent cleavage of initial precomplexed IgE was measured by analyzing median cellular 647 intensity, while cleavage of the post wash addition of IgE, which should only be degraded by recycling conjugates which released the first round of precomplexed IgE, was analyzed by median cellular 488 intensity. HepG2 cells were treated with human IgE (Enzo Life Sciences, BPD-DIA-HE1) conjugated to a cathepsin-cleavable quenched deep red (647) fluorescent probe precomplexed to conjugate fortwo hours, then washed, and fresh media with IgE conjugated to a green (488) cathepsin-cleavable fluorescent probe was then added without conjugate. […] Fluorescence values were measured by FACS and normalized to unconjugated parent protein. Reported values are the average of the values of two replicate wells.

[1] = tested on: Alexa Fluor647 labelled human IgE; experiment: Uptake assay: internalization of Alexa Fluor 647 labelled IgE in wild type HepG2 cells (Example 6); conditions: equimolar conjugate and AF647 IgE, 2 hours, median cellular AF647 intensity by flow cytometry, normalized to unconjugated parent protein
Protocol: as §1
(§2) HepG2 cells (25,000) were plated in 96-well plates 48 hours before the experiment was performed. On the day of the experiment, indicated the conjugate was mixed with an equimolar stock of Alexa Fluor647 labelled human IgE (Enzo Life Sciences, BPD-DIA-HE 1) in fresh EMEM as a 600 nM stock. The precomplexed conjugate:IgE mixture was incubated at room temperature for 30 minutes. During the precomplexing step, media from HepG2 was removed, and 40 ul of EMEM with 1/100 Fc Receptor Blocking Solution (Biolegend Human TruStain FcX, 422302) was added. Cells incubated in the receptor blocking solution for 10 minutes while making serial dilutions (1:3) of conjugate:IgE stock solution in EMEM. 40 ul of the conjugate:IgE mixture in EMEM was then added to cells (six dilutions, with final concentrations ranging from 300 nM to 1.23 nM) for 2 hours before washing with DPBS and detaching with 0.25% Trypsin/EDTA. Cells were pelleted in 96-well conical bottom plates, washed once with FACS Buffer with BSA (Rockland Immunochemicals), and resuspended in FACS Buffer with BSA. Uptake of fluorescently labelled IgE was measured by analyzing median cellular AF647 intensity by flow cytometry.
(§3) Cells were incubated with equimolar ratio of conjugate and AF647 IgE at indicated concentrations, with data normalized to unconjugated parent protein (Oma S35HWY57H-LC).

[2] = tested on: LysoLight-labelled human IgE; experiment: Lysosomal degradation of LysoLight-labelled IgE in HepG2 cells, live cell imaging (Example 7); conditions: equimolar conjugate:LysoLight IgE, area under the curve of deep red fluorescence over three days, normalized to unconjugated parent protein
Protocol: as §1
HepG2 cells (15,000) were plated in 96-well plates 72 hours before performing the experiment. On the day of the experiment, indicated the conjugate was diluted in fresh EMEM and mixed with an equimolar stock of LysoLight-labelled human IgE (Enzo Life Sciences, BPD-DIA-HE1), at 200 nM of each compound. The precomplexed conjugate:IgE mixture was incubated at room temperature for 30 minutes. During the precomplexing step, media from HepG2 was removed, and 40 ul of EMEM with 1/100 Fc Receptor Blocking Solution (Biolegend Human TruStain FcX, 422302) was added. Cells incubated in the receptor blocking solution for 10 minutes while making serial dilutions (1:3) of conjugate:IgE stock solution in EMEM. 40 ul of the conjugate:IgE mixture in EMEM was then added to cells (five dilutions, with final concentrations ranging from 100 nM to 1.23 nM). Cells were placed in an IncuCyte Live-Cell Analysis System (Sartorius) for long term live cell imaging analysis (10× magnification, 3 images per well). One hour after addition of compound, image acquisition to measure red fluorescence from the LysoLight probe was started, with further Images collected every hour for 72 hours. Fluorescence of the LysoLight probe only occurs when cleaved by lysosomal cathepsin proteases, confirming lysosomal delivery and degradation of target. After 72 hours, mean red fluorescence was measured for each time point, and the area under the curve of fluorescence overtime was used to measure total degradation over the 3-day time period.

HepG2 cells = experiment: Externalization of conjugates from a cell following internalization (cycling), high-throughput format (Example 11); conditions: 50 nM conjugate 1 hour, stringent washes, Alexa Fluor 647-labelled a-human IgG 1 hour, FACS, normalized to unconjugated parent protein, average of two replicate wells
Protocol: as §1
The method was also adapted to a high-throughput format. In this assay, 25,000 HepG2 cells were plated in 96-well plates 48 hours before performing the experiment. The day of the experiment, cells were incubated with conjugate at indicated concentrations for 1 hour. Cells were then placed on ice to prevent trafficking/recycling during wash steps, and washed once with DPBS, once with sodium acetate buffer (20 mM, 150 mM NaCl, pH 5.2), once with Earle's Balanced Salt Solution (EBSS) adjusted to pH 2.5, and once again with DPBS, to remove conjugate from media and cell surface. Afterwards, 100 ul of prewarmed (to 37° C.) EMEM with 1 μg/ml of human a-IgG antibody conjugated to Alexa Fluor647 fluorophores was added to cells for 1 hour before washing with DPBS and detaching with 0.25% Trypsin/EDTA. Cells were pelleted in 96-well conical bottom plates, washed once with FACS Buffer with BSA (Rockland Immunochemicals), resuspended FACS Buffer with BSA and median AF647 intensity was analyzed by flow cytometry. The amount of conjugate capable of cycling to the cell surface (being externalized from the cell) and binding to the Alexa Fluor647 labelled α-IgG was measured by analyzing median cellular 647 fluorescence intensity by flow cytometry. […]. Reported values are the average of the values of two replicate wells.

[3] = tested on: Alexa Fluor647 labelled human IgE; experiment: Uptake assay: internalization of Alexa Fluor 647 labelled IgE in ASGPR1/2 KO HepG2 cells (Example 6); conditions: equimolar conjugate and AF647 IgE, normalized to unconjugated parent protein
Protocol: as §1, §2, §3

Structure (SMILES)	Average Degradation (Molar equivalents) (recombinant IgE)	Normalized Fluorescence Post Wash Median Green (human IgE)	Normalized Fluorescence Precomplex Median Deep Red (human IgE)	Normalized Fluorescence 3.7 nM WT [1]	Normalized Fluorescence 100 nM WT [1]	Normalized Fluorescence 3.7 nM [2]	Normalized Fluorescence 100 nM [2]	Normalized Fluorescence (HepG2 cells)	Normalized Fluorescence 100 nM ASGPR KO [3]
CC(=O)N[C@@H]1[C@@H](O)[C@@H](O)[C@@H](CO)O[C@@H]1CCCOCCOCCNC(=O)NCCCC(CCCNC(=O)NCCOCCOCCC[C@H]1O[C@H](CO)[C@H](O)[C@H](O)[C@H]1NC(C)=O)(CCCNC(=O)NCCOCCOCCC[C@H]1O[C@H](CO)[C@H](O)[C@H](O)[C@H]1NC(C)=O)NC(=O)NCCOCCOCCOCCNC(=O)c1ccc(N2C(=O)C=CC2=O)cc1 [Compound 2314]	6.5 Molar equivalents	3.5	3.6	69.0	265.7	13.9	3.9	40.5	1.0
CC(=O)N[C@@H]1[C@@H](O)[C@@H](O)[C@@H](CO)O[C@@H]1CCCOCCOCCNC(=O)NCCCC(C)(CCCNC(=O)NCCOCCOCCC[C@H]1O[C@H](CO)[C@H](O)[C@H](O)[C@H]1NC(C)=O)NC(=O)NCCOCCOCCOCCNC(=O)c1ccc(N2C(=O)C=CC2=O)cc1 (stereo partly drawn) [Compound 2318, N,N′-((2R,2′R,3R,3′R,4R,4′R,5R,5′R,6R,6′R)-(16-(3-(1-(4-(2,5-dioxo-2,5-dihydro-1H-pyrrol-1-yl)phenyl)-1-oxo-5,8,11-trioxa-2-azatridecan-13-yl)ureido)-16-methyl-11,21-dioxo-4,7,25,28-tetraoxa-10,12,20,22-tetraazahentriacontane-1,31-diyl)bis(4,5-dihydroxy-6-(hydroxymethyl)tetrahydro-2H-pyran-2,3-diyl))diacetamide]	4.2 Molar equivalents	2.0	2.4	44.1	159.1	4.1	2.1	27.4	1.0
O=C(CCOCCOCCOCCNS(=O)(=O)c1ccc(N2C(=O)C=CC2=O)cc1)NC(CCCNC(=O)NCCOCCOCCOC[C@H]1CN([C@H]2CO[C@H](CO)[C@H](O)[C@@H]2O)C(=O)O1)(CCCNC(=O)NCCOCCOCCOC[C@H]1CN([C@H]2CO[C@H](CO)[C@H](O)[C@@H]2O)C(=O)O1)CCCNC(=O)NCCOCCOCCOC[C@H]1CN([C@H]2CO[C@H](CO)[C@H](O)[C@@H]2O)C(=O)O1 [Compound 2324]	5.2 Molar equivalents	2.9	3.2	39.2	207.4	5.8	2.6	32.2	1.2
CC(=O)N[C@H]1[C@H](OCCOCCOCCOCCNC(=O)CCOCC(COCCC(=O)NCCOCCOCCOCCO[C@@H]2O[C@H](CO)[C@H](O)[C@H](O)[C@H]2NC(C)=O)(COCCC(=O)NCCOCCOCCOCCO[C@@H]2O[C@H](CO)[C@H](O)[C@H](O)[C@H]2NC(C)=O)NC(=O)CCOCCOCCOCCOCCNC(=O)c2ccc(N3C(=O)C=CC3=O)cc2)O[C@H](CO)[C@H](O)[C@@H]1O [Compound 2402-C]	0.7 Molar equivalents	1.6	2.1	19.6	84.3	2.2	2.1	10.5	1.3
CC(=O)N[C@@H]1[C@@H](O)[C@@H](O)[C@@H](CO)O[C@@H]1c1cn(CCOCCOCCNC(=O)NCCCC(CCCNC(=O)NCCOCCOCCn2cc([C@H]3O[C@H](CO)[C@H](O)[C@H](O)[C@H]3NC(C)=O)nn2)(CCCNC(=O)NCCOCCOCCn2cc([C@H]3O[C@H](CO)[C@H](O)[C@H](O)[C@H]3NC(C)=O)nn2)NC(=O)CCOCCOCCOCCNS(=O)(=O)c2ccc(N3C(=O)C=CC3=O)cc2)nn1 [Compound 2329]	4.7 Molar equivalents	3.0	3.3	56.3	201.8	11.6	3.0	40.3	1.1
